{
  "source": "ChEMBL document CHEMBL3627665",
  "about": "“Challenges and Opportunities in the Discovery of New Therapeutics Targeting the Kynurenine Pathway” (J Med Chem, 2015)",
  "key": {"[1]": {"target": "Tryptophan 2,3-dioxygenase (Homo sapiens, UniProt P48775)", "sequence (P48775 whole entry)": "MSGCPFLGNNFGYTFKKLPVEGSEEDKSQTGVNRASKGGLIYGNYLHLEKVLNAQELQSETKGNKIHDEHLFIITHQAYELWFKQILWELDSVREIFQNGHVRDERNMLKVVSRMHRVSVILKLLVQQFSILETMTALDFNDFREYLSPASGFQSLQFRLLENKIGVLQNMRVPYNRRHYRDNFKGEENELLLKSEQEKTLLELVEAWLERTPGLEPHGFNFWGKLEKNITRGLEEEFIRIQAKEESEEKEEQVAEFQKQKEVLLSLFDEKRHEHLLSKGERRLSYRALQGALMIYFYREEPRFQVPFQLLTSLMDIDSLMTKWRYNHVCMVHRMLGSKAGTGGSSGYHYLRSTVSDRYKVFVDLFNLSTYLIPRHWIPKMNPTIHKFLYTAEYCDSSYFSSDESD", "experiment": "Inhibition of TDO (unknown origin)"}, "[2]": {"target": "T1, Indoleamine 2,3-dioxygenase 2 (Homo sapiens, UniProt Q6ZQW0)", "T1 sequence (Q6ZQW0 whole entry)": "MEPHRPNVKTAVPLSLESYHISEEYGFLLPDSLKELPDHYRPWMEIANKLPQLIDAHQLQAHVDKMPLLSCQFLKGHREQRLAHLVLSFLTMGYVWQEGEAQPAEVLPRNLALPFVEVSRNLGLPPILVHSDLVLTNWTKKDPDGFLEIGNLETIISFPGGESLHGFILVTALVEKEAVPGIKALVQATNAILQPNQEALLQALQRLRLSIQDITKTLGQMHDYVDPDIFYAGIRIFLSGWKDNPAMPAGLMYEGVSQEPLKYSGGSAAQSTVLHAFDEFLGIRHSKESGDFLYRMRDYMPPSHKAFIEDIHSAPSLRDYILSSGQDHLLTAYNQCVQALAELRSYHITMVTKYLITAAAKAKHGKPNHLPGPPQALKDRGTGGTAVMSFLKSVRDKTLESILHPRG", "experiment": "Inhibition of human IDO2"}, "[3]": {"target": "Tryptophan 2,3-dioxygenase (Mus musculus, UniProt P48776)", "sequence (P48776 whole entry)": "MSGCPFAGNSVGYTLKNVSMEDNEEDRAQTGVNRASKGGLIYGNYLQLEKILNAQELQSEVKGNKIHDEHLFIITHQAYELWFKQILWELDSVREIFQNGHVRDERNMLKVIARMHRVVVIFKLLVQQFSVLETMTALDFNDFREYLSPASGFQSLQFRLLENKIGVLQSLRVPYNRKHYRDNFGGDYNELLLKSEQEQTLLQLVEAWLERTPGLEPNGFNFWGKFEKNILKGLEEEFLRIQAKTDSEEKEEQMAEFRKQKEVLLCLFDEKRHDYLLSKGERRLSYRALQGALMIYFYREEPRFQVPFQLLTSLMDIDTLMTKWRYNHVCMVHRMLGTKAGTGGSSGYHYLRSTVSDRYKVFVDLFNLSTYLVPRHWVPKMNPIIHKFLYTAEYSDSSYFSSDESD", "experiment": "Inhibition of mouse TDO"}, "[4]": {"target": "Indoleamine 2,3-dioxygenase 1 (Mus musculus, UniProt P28776)", "sequence (P28776 whole entry)": "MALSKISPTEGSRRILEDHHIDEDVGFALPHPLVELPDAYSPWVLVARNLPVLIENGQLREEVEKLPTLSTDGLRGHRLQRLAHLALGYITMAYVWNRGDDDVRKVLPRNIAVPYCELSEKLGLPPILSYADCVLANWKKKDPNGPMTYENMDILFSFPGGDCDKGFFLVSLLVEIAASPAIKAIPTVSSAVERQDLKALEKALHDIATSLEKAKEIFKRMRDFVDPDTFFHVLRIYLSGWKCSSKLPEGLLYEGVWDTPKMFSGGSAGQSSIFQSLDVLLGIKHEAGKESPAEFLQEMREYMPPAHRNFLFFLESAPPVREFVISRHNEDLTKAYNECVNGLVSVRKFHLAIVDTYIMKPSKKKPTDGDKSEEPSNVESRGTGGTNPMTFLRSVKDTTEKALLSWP", "experiment": "Inhibition of mouse IDO1"}, "[5]": {"target": "Kynurenine/alpha-aminoadipate aminotransferase, mitochondrial (Rattus norvegicus, UniProt Q64602)", "sequence (Q64602 whole entry)": "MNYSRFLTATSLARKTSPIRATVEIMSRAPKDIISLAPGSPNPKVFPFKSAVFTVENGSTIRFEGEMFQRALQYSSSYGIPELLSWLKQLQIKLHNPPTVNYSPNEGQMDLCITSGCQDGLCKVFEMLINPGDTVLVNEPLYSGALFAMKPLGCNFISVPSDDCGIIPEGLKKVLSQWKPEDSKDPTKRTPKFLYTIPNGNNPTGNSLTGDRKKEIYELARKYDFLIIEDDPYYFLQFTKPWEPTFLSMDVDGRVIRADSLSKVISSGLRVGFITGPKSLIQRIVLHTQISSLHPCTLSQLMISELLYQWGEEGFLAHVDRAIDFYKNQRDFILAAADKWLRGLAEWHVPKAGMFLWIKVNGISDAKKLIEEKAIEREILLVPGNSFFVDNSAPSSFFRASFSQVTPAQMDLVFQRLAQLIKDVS", "experiment": "Inhibition of rat KAT-2"}, "[6]": {"target": "T2, Kynurenine 3-monooxygenase (Saccharomyces cerevisiae (strain ATCC 204508 / S288c) (Baker's yeast), UniProt P38169)", "T2 sequence (P38169 whole entry)": "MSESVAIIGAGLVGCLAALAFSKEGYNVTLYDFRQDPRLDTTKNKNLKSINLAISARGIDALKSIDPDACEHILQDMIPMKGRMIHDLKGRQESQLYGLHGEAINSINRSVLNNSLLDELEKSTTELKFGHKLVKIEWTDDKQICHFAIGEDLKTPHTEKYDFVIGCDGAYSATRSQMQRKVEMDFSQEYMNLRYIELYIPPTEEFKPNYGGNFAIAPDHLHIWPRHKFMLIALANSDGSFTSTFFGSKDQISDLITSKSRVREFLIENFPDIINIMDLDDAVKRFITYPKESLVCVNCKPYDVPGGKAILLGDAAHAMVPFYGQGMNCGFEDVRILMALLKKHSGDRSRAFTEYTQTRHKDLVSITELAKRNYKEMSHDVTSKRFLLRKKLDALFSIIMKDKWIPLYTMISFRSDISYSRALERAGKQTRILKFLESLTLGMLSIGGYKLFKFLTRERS", "experiment": "Inhibition of yeast KMO"}, "[7]": {"target": "Kynurenine 3-monooxygenase (Homo sapiens, UniProt O15229)", "sequence (O15229 whole entry)": "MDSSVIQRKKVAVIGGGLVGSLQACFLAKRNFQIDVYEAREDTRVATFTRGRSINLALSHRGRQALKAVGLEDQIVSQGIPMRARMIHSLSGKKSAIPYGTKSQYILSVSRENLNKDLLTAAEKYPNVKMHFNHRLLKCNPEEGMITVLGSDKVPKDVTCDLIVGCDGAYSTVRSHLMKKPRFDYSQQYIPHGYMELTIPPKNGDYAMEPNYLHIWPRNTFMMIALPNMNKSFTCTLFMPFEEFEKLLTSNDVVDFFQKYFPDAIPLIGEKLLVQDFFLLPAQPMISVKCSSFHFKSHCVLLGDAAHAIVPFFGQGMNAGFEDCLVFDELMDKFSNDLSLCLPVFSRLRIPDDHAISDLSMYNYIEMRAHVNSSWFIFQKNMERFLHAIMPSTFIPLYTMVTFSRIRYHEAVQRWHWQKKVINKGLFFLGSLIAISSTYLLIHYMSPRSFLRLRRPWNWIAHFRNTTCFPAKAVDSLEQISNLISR", "experiment": "Inhibition of human KMO"}},
  "data": [
    {"smiles": "Cc1ccc(-c2csc3nnc(SCC(=O)Nc4ccc5c(c4)OCO5)n23)cc1", "values": [
      {"measurement": "IC50", "setting": "[1]", "value": "> 62500", "unit": "nM"},
      {"measurement": "IC50", "setting": "[2]", "value": "> 250000", "unit": "nM"}
    ]},
    {"smiles": "Fc1ccc2c(/C=C/c3nnn[nH]3)c[nH]c2c1", "values": [
      {"measurement": "IC50", "setting": "[3]", "value": 1960, "unit": "nM"},
      {"measurement": "IC50", "setting": "[4]", "value": "> 400000", "unit": "nM"}
    ]},
    {"smiles": "O=C1NC(=O)/C(=C/c2cccc(-c3ccc4c5c3CCC(=O)N5CC4)c2)S1", "values": [
      {"measurement": "IC50", "setting": "[5]", "value": 13400, "unit": "nM"}
    ]},
    {"smiles": "CCS(=O)(=O)c1ccc(C(=O)C[C@H](N)C(=O)O)cc1", "values": [
      {"measurement": "IC50", "setting": "[5]", "value": 71000, "unit": "nM"}
    ]},
    {"smiles": "O=C(O)C1CC1C(=O)c1ccc(Cl)c(Cl)c1", "note": "(stereo unspecified)", "values": [
      {"measurement": "IC50", "setting": "[6]", "value": 74, "unit": "nM"},
      {"measurement": "IC50", "setting": "[7]", "value": 20, "unit": "nM"}
    ]},
    {"smiles": "O=C(CC1c2ccccc2-c2cncn21)C1CCCCC1", "note": "(stereo unspecified)", "values": [
      {"measurement": "IC50", "setting": "[1]", "value": "< 1000", "unit": "nM"}
    ]},
    {"smiles": "Fc1ccc2c(/C=C/c3cccnc3)c[nH]c2c1", "values": [
      {"measurement": "IC50", "setting": "[3]", "value": 1460, "unit": "nM"},
      {"measurement": "IC50", "setting": "[4]", "value": "> 80000", "unit": "nM"}
    ]}
  ]
}
